Starred links: 1 amine or outer side, 2 acyl side, 3 side chain; linkers in the order of their positions; H or OH if unused. Positions of bridges follow the written chain, without caps; N, C: chain ends. Non-standard residues stand in square brackets, D forms with d. Residues, ends and D or L forms follow the SMILES beside them. *: point of attachment. hPhe(3-Cl-4-CF3) = N[C@@H](CCc1ccc(C(F)(F)F)c(Cl)c1)C(=O)O; hPhe(3-F,4-CF3) = N[C@@H](CCc1ccc(C(F)(F)F)c(F)c1)C(=O)O; NEtAsp = CCN([C@@H](CC(=O)[*:3])C(=O)[*:2])[*:1]; 3Oxa8azabicyclo(3.2.1)octane = C1CC2COCC1N2*; X6 = CCN([C@@H](CC1CCCCC1)C(=O)[*:2])[*:1]; NMeAla(cPent) = CN[C@@H](CC1CCCC1)C(=O)O; NMeGly(cPent) = CN[C@H](C(=O)O)C1CCCC1; NMeAla(cPr) = CN[C@@H](CC1CC1)C(=O)O; NMe4Pal = CN[C@@H](Cc1ccncc1)C(=O)O; NMeGly(cBu) = CN[C@H](C(=O)O)C1CCC1; NMeCha = CN[C@@H](CC1CCCCC1)C(=O)O; NMeChg = CN[C@H](C(=O)O)C1CCCCC1; NMeD = CN[C@@H](CC(=O)O)C(=O)O; NMeL = CN[C@@H](CC(C)C)C(=O)O; Chg = N[C@H](C(=O)O)C1CCCCC1; NMePra = C#CC[C@H](NC)C(=O)O; NMeNva = CCC[C@H](NC)C(=O)O; NMeV = CN[C@H](C(=O)O)C(C)C; Trifluoroethyl = FC(F)(F)C*; d(β3hA) = C[C@@H](N)CC(=O)O; NMeS = CN[C@@H](CO)C(=O)O; NMeA = CN[C@@H](C)C(=O)O; Piperidide = C1CCN(*)CC1; Ac5c = NC1(C(=O)O)CCCC1; Aze = O=C(O)[C@@H]1CCN1; Ac4c = NC1(C(=O)O)CCC1; Sar = CNCC(=O)O
Legend:
[1] = molecular target: T1, Kras and SOS1 (biotin-tagged human Kras loaded with GDP, His-tagged human SOS1) (Homo sapiens, UniProt P01116, G12D); test: Protein-protein interaction inhibition between Kras and SOS1 (KrasGl2D-SOS PPI) using AlphaScreen; type: binding; settings: AlphaScreen; biotin-tagged human Kras loaded with GDP, His-tagged human SOS1; read-out: KRAS G12D-SOS PPI IC50
T1 construct: made in house; host or cells: E. coli (stated for Kras only)
Method in brief: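 Donor beads (nickel) hold His-SOS1; acceptor beads (streptavidin) hold biotin-Kras bound to GDP. Signal measured at 520-620 nm following 680 nm excitation.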

[2] = test system: Human pancreatic cancer cell line AsPC-1; test: Measurement of AsPC-1 cell growth inhibition (AsPC-1 CGI); type: cell-based; settings: 96 h
Method in brief: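 AsPC-1 cells in 15% FBS RPMI-1640 were exposed to test compound for 96 hours at 37° C, with CellTiter-Glo as endpoint.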

T1 sequence (P01116 1-188 isoform P01116-2 G12D): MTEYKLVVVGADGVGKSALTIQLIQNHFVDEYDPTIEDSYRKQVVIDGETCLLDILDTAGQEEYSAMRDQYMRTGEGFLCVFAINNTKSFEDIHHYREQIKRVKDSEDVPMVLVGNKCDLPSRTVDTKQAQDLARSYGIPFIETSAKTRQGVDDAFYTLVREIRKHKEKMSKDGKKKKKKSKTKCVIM

SMILES | IC50 [1] [nM] | IC50 [2] [nM]
CC[C@H](C)[C@@H]1NC(=O)[C@H](C2CCCCC2)N(C)C(=O)C[C@@H](C)NC(=O)[C@H](C(C)C)N(C)C(=O)C2(CCCC2)NC(=O)[C@@H]2CCCN2C(=O)[C@H](CCc2ccc(C(F)(F)F)c(Cl)c2)NC(=O)CN(C)C(=O)[C@H](CC2CCCCC2)N(C)C(=O)CN(C)C(=O)CN(C)C1=O [Compound 456] (cyclo([Ac5c][NMeV][d(β3hA)][NMeChg]I[Sar][Sar][NMeCha][Sar][hPhe(3-Cl-4-CF3)]P)) | 34 | 100 to 500
CC[C@H](C)[C@@H]1NC(=O)[C@H](C2CCC2)N(C)C(=O)C[C@@H](C(=O)N2C3CCC2COC3)N(C)C(=O)[C@H](C2CCCCC2)N(C)C(=O)C2(CCCC2)NC(=O)[C@@H]2CCCN2C(=O)[C@H](CCc2ccc(C(F)(F)F)c(Cl)c2)NC(=O)CN(C)C(=O)[C@H](CC2CCCC2)N(C)C(=O)CN(C)C(=O)CN(C)C1=O [Compound 461] ([NMeGly(cBu)]I[Sar][Sar][NMeAla(cPent)][Sar][hPhe(3-Cl-4-CF3)]P[Ac5c][NMeChg][NMeD]-{3Oxa8azabicyclo(3.2.1)octane}; lactam N-11) | 1.2 | 100 to 500
CCC[C@H]1C(=O)NC2(CCCC2)C(=O)N(C)[C@@H](C2CCCCC2)C(=O)N(C)[C@H](C(=O)N2CCCCC2)CC(=O)N(C)[C@@H](CC(C)C)C(=O)N[C@@H]([C@@H](C)CC)C(=O)N(C)CC(=O)N2CC[C@H]2C(=O)N(C)[C@@H](CC2CCCCC2)C(=O)N(C)CC(=O)N[C@@H](CCc2ccc(C(F)(F)F)c(Cl)c2)C(=O)N1C [Compound 478] ([NMeL]I[Sar][Aze][NMeCha][Sar][hPhe(3-Cl-4-CF3)][NMeNva][Ac5c][NMeChg][NMeD]-Piperidide; lactam N-11) | 3 | 100 to 500
CC[C@H](C)[C@@H]1NC(=O)[C@H](CC(C)C)N(C)C(=O)C[C@@H](C(=O)N2CCCCC2)N(C)C(=O)[C@H](C2CCCCC2)N(C)C(=O)C2(CCCC2)NC(=O)[C@H](Cc2ccncc2)N(C)C(=O)[C@H](CCc2ccc(C(F)(F)F)c(Cl)c2)NC(=O)CN(C)C(=O)[C@H](CC2CCCCC2)N(C)C(=O)[C@@H]2CCN2C(=O)CN(C)C1=O [Compound 480] ([NMeL]I[Sar][Aze][NMeCha][Sar][hPhe(3-Cl-4-CF3)][NMe4Pal][Ac5c][NMeChg][NMeD]-Piperidide; lactam N-11) | 1.4 | 100 to 500
CC[C@H](C)[C@@H]1NC(=O)[C@H](C)N(C)C(=O)C[C@@H](C(=O)N2CCCCC2)N(C)C(=O)[C@H](C2CCCCC2)N(C)C(=O)C2(CCCC2)NC(=O)[C@@H]2CCCN2C(=O)[C@H](CCc2ccc(C(F)(F)F)c(F)c2)NC(=O)CN(C)C(=O)[C@H](CC2CCCCC2)N(C)C(=O)CN(C)C(=O)CN(C)C1=O [Compound 491] ([NMeA]I[Sar][Sar][NMeCha][Sar][hPhe(3-F,4-CF3)]P[Ac5c][NMeChg][NMeD]-Piperidide; lactam N-11) | 0.35 | 100 to 500
CC[C@H](C)[C@@H]1NC(=O)[C@H](COCC(F)(F)F)N(C)C(=O)C[C@@H](C(=O)N2CCCCC2)N(C)C(=O)[C@H](C2CCCCC2)N(C)C(=O)C2(CCCC2)NC(=O)[C@@H]2CCCN2C(=O)[C@H](CCc2ccc(C(F)(F)F)c(Cl)c2)NC(=O)CN(C)C(=O)[C@H](CC2CCCCC2)N(C)C(=O)CN(C)C(=O)CN(C)C1=O [Compound 518] ([NMeS](Trifluoroethyl)I[Sar][Sar][NMeCha][Sar][hPhe(3-Cl-4-CF3)]P[Ac5c][NMeChg][NMeD]-Piperidide; lactam N-11) | 0.67 | 50 to 100
CC[C@H](C)[C@@H]1NC(=O)[C@H](CC(C)C)N(C)C(=O)C[C@@H](C)NC(=O)[C@H](C(C)C)N(C)C(=O)C2(CCC2)NC(=O)[C@@H]2CCCN2C(=O)[C@H](CCc2ccc(C(F)(F)F)c(Cl)c2)NC(=O)CN(C)C(=O)[C@H](CC2CCCCC2)N(C)C(=O)CN(C)C(=O)CN(C)C1=O [Compound 520] (cyclo([Ac4c][NMeV][d(β3hA)][NMeL]I[Sar][Sar][NMeCha][Sar][hPhe(3-Cl-4-CF3)]P)) | 17 | 100 to 500
CC[C@H](C)[C@@H]1NC(=O)[C@H](CC(C)C)N(C)C(=O)C[C@@H](C(=O)N2CCCCC2)N(C)C(=O)[C@H](C(C)C)N(C)C(=O)C2(CCCC2)NC(=O)[C@@H]2CCCN2C(=O)[C@H](CCc2ccc(C(F)(F)F)c(Cl)c2)NC(=O)CN(C)C(=O)[C@H](C2CCCCC2)N(C)C(=O)[C@@H]2CCN2C(=O)[C@H](C)N(C)C1=O [Compound 526] ([NMeL]I[NMeA][Aze][NMeChg][Sar][hPhe(3-Cl-4-CF3)]P[Ac5c][NMeV][NMeD]-Piperidide; lactam N-11) | 6.6 | 100 to 500
CC[C@H](C)[C@@H]1NC(=O)[C@H](C)N(C)C(=O)C[C@@H](C(=O)N2CCCCC2)N(CC)C(=O)[C@H](C2CCCC2)N(C)C(=O)C2(CCCC2)NC(=O)[C@@H]2CCCN2C(=O)[C@H](CCc2ccc(C(F)(F)F)c(Cl)c2)NC(=O)CN(C)C(=O)[C@H](CC2CCCCC2)N(C)C(=O)CN(C)C(=O)CN(C)C1=O [Compound 532] ([NMeA]I[Sar][Sar][NMeCha][Sar][hPhe(3-Cl-4-CF3)]P[Ac5c][NMeGly(cPent)][NEtAsp]-Piperidide; lactam N-11) | 0.48 | 50 to 100
CO[C@H](C)[C@@H]1NC(=O)[C@H](CC(C)C)N(C)C(=O)C[C@@H](C(=O)N2CCCCC2)N(C)C(=O)[C@H](C2CCCCC2)N(C)C(=O)C2(CCCC2)NC(=O)[C@@H]2CCCN2C(=O)[C@H](CCc2ccc(C(F)(F)F)c(Cl)c2)NC(=O)CN(C)C(=O)[C@H](CC2CCCCC2)N(C)C(=O)CN(C)C(=O)CN(C)C1=O [Compound 535] ([NMeL]T(Me)[Sar][Sar][NMeCha][Sar][hPhe(3-Cl-4-CF3)]P[Ac5c][NMeChg][NMeD]-Piperidide; lactam N-11) | 0.65 | 50 to 100
CC[C@H](C)[C@@H]1NC(=O)[C@H](CC(C)C)N(C)C(=O)C[C@@H](C(=O)N2CCCCC2)N(C)C(=O)[C@H](C2CCCCC2)N(C)C(=O)C2(CCCC2)NC(=O)[C@@H]2CCCN2C(=O)[C@H](CCc2ccc(C(F)(F)F)c(Cl)c2)NC(=O)CN(C)C(=O)[C@H](CC2CCCCC2)N(CC)C(=O)CN(C)C(=O)CN(C)C1=O [Compound 543] ([NMeL]I[Sar][Sar][X6][Sar][hPhe(3-Cl-4-CF3)]P[Ac5c][NMeChg][NMeD]-Piperidide; lactam N-11) | 0.56 | 50 to 100
CCC[C@H]1C(=O)N(C)[C@H](C(=O)N2CCCCC2)CC(=O)N(C)[C@@H](CC(C)C)C(=O)N[C@@H]([C@@H](C)CC)C(=O)N(C)CC(=O)N(C)CC(=O)N(C)[C@@H](CC2CCCCC2)C(=O)N(C)CC(=O)N[C@@H](CCc2ccc(C(F)(F)F)c(Cl)c2)C(=O)N2CCC[C@H]2C(=O)NC2(CCCC2)C(=O)N1C [Compound 548] ([NMeL]I[Sar][Sar][NMeCha][Sar][hPhe(3-Cl-4-CF3)]P[Ac5c][NMeNva][NMeD]-Piperidide; lactam N-11) | 1.6 | 100 to 500
C#CC[C@H]1C(=O)N[C@@H]([C@@H](C)CC)C(=O)N(C)CC(=O)N(C)CC(=O)N(C)[C@@H](CC2CCCCC2)C(=O)N(C)CC(=O)N[C@@H](CCc2ccc(C(F)(F)F)c(Cl)c2)C(=O)N2CCC[C@H]2C(=O)NC2(CCCC2)C(=O)N(C)[C@@H](C2CCCCC2)C(=O)N(C)[C@H](C(=O)N2CCCCC2)CC(=O)N1C [Compound 551] ([NMePra]I[Sar][Sar][NMeCha][Sar][hPhe(3-Cl-4-CF3)]P[Ac5c][NMeChg][NMeD]-Piperidide; lactam N-11) | 0.52 | 50 to 100
CC(C)C[C@H]1C(=O)N[C@@H](C2CCCCC2)C(=O)N(C)CC(=O)N(C)CC(=O)N(C)[C@@H](CC2CCCCC2)C(=O)N(C)CC(=O)N[C@@H](CCc2ccc(C(F)(F)F)c(Cl)c2)C(=O)N2CCC[C@H]2C(=O)NC2(CCCC2)C(=O)N(C)[C@@H](C2CCCCC2)C(=O)N(C)[C@H](C(=O)N2CCCCC2)CC(=O)N1C [Compound 552] ([NMeL][Chg][Sar][Sar][NMeCha][Sar][hPhe(3-Cl-4-CF3)]P[Ac5c][NMeChg][NMeD]-Piperidide; lactam N-11) | 0.63 | 100 to 500
CC[C@H](C)[C@@H]1NC(=O)[C@H](CC2CC2)N(C)C(=O)C[C@@H](C(=O)N2CCCCC2)N(C)C(=O)[C@H](C(C)C)N(C)C(=O)C2(CCCC2)NC(=O)[C@@H]2CCCN2C(=O)[C@H](CCc2ccc(C(F)(F)F)c(Cl)c2)NC(=O)CN(C)C(=O)[C@H](CC2CCCCC2)N(C)C(=O)CN(C)C(=O)CN(C)C1=O [Compound 561] ([NMeAla(cPr)]I[Sar][Sar][NMeCha][Sar][hPhe(3-Cl-4-CF3)]P[Ac5c][NMeV][NMeD]-Piperidide; lactam N-11) | 3.4 | 100 to 500
CC[C@H](C)[C@@H]1NC(=O)[C@H](C2CCC2)N(C)C(=O)C[C@@H](C(=O)N2CCCCC2)N(C)C(=O)[C@H](C2CCCCC2)N(C)C(=O)C2(CCCC2)NC(=O)[C@@H]2CCCN2C(=O)[C@H](CCc2ccc(C(F)(F)F)c(Cl)c2)NC(=O)CN(C)C(=O)[C@H](CC2CCCCC2)N(C)C(=O)CN(C)C(=O)CN(C)C1=O [Compound 562] ([NMeGly(cBu)]I[Sar][Sar][NMeCha][Sar][hPhe(3-Cl-4-CF3)]P[Ac5c][NMeChg][NMeD]-Piperidide; lactam N-11) | 0.56 | 50 to 100
CC[C@H](C)[C@@H]1NC(=O)[C@H](CC(C)C)N(C)C(=O)C[C@@H](C(=O)N(C)C)N(C)C(=O)[C@H](C2CCCC2)N(C)C(=O)C2(CCCC2)NC(=O)[C@H](C)NC(=O)[C@H](CCc2ccc(C(F)(F)F)c(Cl)c2)NC(=O)CN(C)C(=O)[C@H](CC2CCCCC2)N(C)C(=O)[C@@H]2CCN2C(=O)[C@H](C)N(C)C1=O [Compound 575] ([NMeL]I[NMeA][Aze][NMeCha][Sar][hPhe(3-Cl-4-CF3)]A[Ac5c][NMeGly(cPent)][NMeD]-NMe2; lactam N-11) | 0.56 | 100 to 500

— patent US12371454B2, “Cyclic peptide compound having Kras inhibitory action” (priority 2019, dated 2025)
